Results on two compounds are retold here after patent US5880111A, “Therapeutic derivations of diphosphonates” (priority 1995, dated 1999).

Each structure is given as a SMILES string. In brackets after ≈: the same amount, converted by molar mass. Like-named read-outs stand apart in the source and are kept apart here.

Holding throughout (assay): MIC by broth-dilution method
Holding throughout (assay type): cell-based

The subject of assay [1] is Staphylococcus aureus ATCC 25923. As for the experimental part:
(§1) The antibacterial action of the product was evaluated against the following bacterial strains:
Gram positive bacteria: Staphylococcus aureus ATCC 25923
(§2) The sensitivity of the foregoing bacterial strains to both the product of Example 1 and norfloxacin was investigated by the broth-dilution method, and the minimal inhibitory concentration (MIC) values were assessed. MIC was defined as the lowest concentration ([…]) at which no bacterial growth could be observed visually.
(§3) The antibiotics were dissolved in dimethylsulfoxide (DMSO) and the solution was diluted by nine consecutive 2-fold dilutions in Nutrient-broth (NB) culture medium. Aliquots (0.2 ml) from each of these diluted solutions were added to test tubes containing 1.6 ml NB culture medium. The antibiotics were investigated in the concentration range of 100-0.38 μg/ml.
(§4) After overnight culture in NB at 37° C., the bacterial cultures were diluted so that their optical densities (OD) at 620 nm were between 0.08-0.1.
(§5) Incubation of the test tubes took place in a thermostat at 37° C. The test tubes were inspected visually after 24 and 48 hours. The margin of error of in vitro sensitivity determination was ± one dilution step. MIC values were read after 48 hours of incubation. The MIC value was the lowest antibiotic concentration at which no bacterial growth was observed, i.e. the culture medium remained clear. […]

Assay [2] concerns Staphylococcus epidermidis OKI 110001. As for the experimental part:
as §1
Staphylococcus epidermidis OKI 110001
as §2, §3, §4, §5

The test system of assay [3] is Streptococcus faecalis OKI 80171. To be noted: Enterococcus faecalis, OKI80171, Nutrient-broth, 37° C., read after 48 hours, mean of three independent experiments. As for the experimental part:
as §1
Streptococcus faecalis OKI 80171
as §2, §3, §4, §5

Assay [4] deals with Salmonella typhi OKI 10084. The note with it: Salmonella enterica. The protocol: as §1
Gram negative bacteria: Salmonella typhi OKI 10084
as §2, §3, §4, §5

Assay [5] concerns Escherichia coli OKI 35034. As for the experimental part: as §1
Escherichia coli OKI 35034
as §2, §3, §4, §5

In assay [6] the test system is Proteus vulgaris OKI 60002. As for the experimental part: as §1
Proteus vulgaris OKI 60002
as §2, §3, §4, §5

The test system of assay [7] is Pseudomonas aeruginosa ATCC 27853. As for the experimental part:
as §1
Pseudomonas aeruginosa ATCC 27853
as §2, §3, §4, §5

As usually defined, the MIC is the smallest concentration in the dilution series that meets the test's criterion for growth inhibition. Take `CCOP(=O)(OCC)C(CN1CCN(c2cc3c(cc2F)c(=O)c(C(=O)O)cn3CC)CC1)P(=O)(OCC)OCC` [Example 1, 6-Fluoro-1-ethyl-7-{4-[2,2-bis(diethoxyphosphono)-1-ethyl]-l-piperazyl}-4-oxo-1,4-dihydroquinoline-3-carboxylic acid]: the minimum inhibitory concentration (MIC) in assay [1] (Staphylococcus aureus, ATCC25923, 48 h) worked out at 12.5 µg/mL (≈ 20.2 µM); in assay [2] (Staphylococcus epidermidis, OKI110001, 48 h) it was 12.5 µg/mL (≈ 20.2 µM); in assay [3], 12.5 µg/mL (≈ 20.2 µM); in assay [4] (Salmonella typhi OKI 10084, Nutrient-broth, 37° C., read after 48 hours, mean of three independent experiments, read-out: MIC), 25 µg/mL (≈ 40.4 µM); in assay [5] (Escherichia coli, OKI35034, 48 h), 25 µg/mL (≈ 40.4 µM); in assay [6] (Proteus vulgaris, OKI60002, 48 h), 3.12 µg/mL (≈ 5.04 µM). The same compound had an MIC in assay [7] (Pseudomonas aeruginosa, ATCC27853, 48 h) of 50 µg/mL (≈ 80.7 µM).
For the compound `CCn1cc(C(=O)O)c(=O)c2cc(F)c(N3CCNCC3)cc21` [NORFLOXACIN, norfloxacin], the MIC in assay [1] (ATCC25923, Staphylococcus aureus ATCC 25923, Nutrient-broth, 37° C., read after 48 hours, mean of three independent experiments, read-out: MIC) came to 6.25 µg/mL (≈ 19.6 µM); in assay [2] (OKI110001, Staphylococcus epidermidis OKI 110001, Nutrient-broth, 37° C., read after 48 hours, only two experiments, read-out: MIC), 6.25 µg/mL (≈ 19.6 µM); in assay [3], 12.5 µg/mL (≈ 39.1 µM); in assay [4] (TYPHI, 48 h), 12.5 µg/mL (≈ 39.1 µM); in assay [5] (OKI35034, Escherichia coli OKI 35034, Nutrient-broth, 37° C., read after 48 hours, mean of three independent experiments, read-out: MIC), 6.25 µg/mL (≈ 19.6 µM); in assay [6] (OKI60002, Proteus vulgaris OKI 60002, Nutrient-broth, 37° C., read after 48 hours, mean of three independent experiments, read-out: MIC), 6.25 µg/mL (≈ 19.6 µM). In assay [7] (ATCC27853, Pseudomonas aeruginosa ATCC 27853, Nutrient-broth, 37° C., read after 48 hours, mean of three independent experiments, read-out: MIC), the MIC is 25 µg/mL (≈ 78.3 µM).
